The record followed here is patent publication US6458793B1, “Heterocyclic derivatives which inhibit factor Xa” (Zeneca Limited, priority 1997, dated 2002).

Each structure is given as a SMILES string.

For orientation: melting point means the temperature of the solid-liquid transition. `O=C(c1ccc(-c2ccncc2)nc1)N1CCN(S(=O)(=O)c2ccc3cc(Br)ccc3c2)CC1` (hydrate or solvate) [Example 1, 1-(6-bromonaphth-2-ylsulphonyl)-4-[6-(4-pyridyl)-nicotinoyl]piperazine] displayed a melting point of 193.5 °C.
